Experiment [1] deals with T1, cytochrome c oxidase (CcO, complex IV), purified from bovine heart; COX4-1 the most abundant COX4 isoform (Bos taurus, UniProt P00396+P00423).
T1 construct: gene COX4I1; purified CcO from bovine heart (Sigma-Aldrich C5499), whole multi-subunit complex; with COX1 and the other CcO subunits
The experiment in a line: inhibition of purified CcO activity, dose-response. The format is biochemical.

Experiment [2] concerns the target T2, cytochrome c oxidase (CcO, complex IV) bearing the COX4-1 regulatory subunit (Homo sapiens, UniProt P00395+P13073).
T2 construct: gene COX4I1; CcO in mitochondrial extracts of UTMZ, U251-TgCOX4-1 (FLAG-tagged COX4-1) and GSC (J × 12, J × 39) cells; with COX1 and the other CcO subunits
The experiment in a line: CcO activity and Michaelis-Menten kinetics in mitochondrial extracts. The format is biochemical.

A word on the IC50: it is the concentration that gives 50% inhibition. Low readings indicate inhibition by little substance, high ones a need for much substance.

T2 sequence (P00414 whole entry): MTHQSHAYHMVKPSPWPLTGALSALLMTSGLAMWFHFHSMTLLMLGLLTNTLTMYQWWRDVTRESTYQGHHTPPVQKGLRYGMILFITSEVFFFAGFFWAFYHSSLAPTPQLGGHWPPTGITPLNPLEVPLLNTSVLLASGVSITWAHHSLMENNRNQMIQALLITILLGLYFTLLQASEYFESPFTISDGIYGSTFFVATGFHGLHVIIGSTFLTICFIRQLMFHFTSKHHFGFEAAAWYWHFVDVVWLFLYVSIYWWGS
T2 sequence (P00403 whole entry, further chain): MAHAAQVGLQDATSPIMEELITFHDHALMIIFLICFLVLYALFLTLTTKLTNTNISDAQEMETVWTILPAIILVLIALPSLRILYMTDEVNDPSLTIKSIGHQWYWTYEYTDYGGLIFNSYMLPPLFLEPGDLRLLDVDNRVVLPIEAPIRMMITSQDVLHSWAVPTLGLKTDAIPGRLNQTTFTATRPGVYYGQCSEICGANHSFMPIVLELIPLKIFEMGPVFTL
T2 sequence (P13073 23-169): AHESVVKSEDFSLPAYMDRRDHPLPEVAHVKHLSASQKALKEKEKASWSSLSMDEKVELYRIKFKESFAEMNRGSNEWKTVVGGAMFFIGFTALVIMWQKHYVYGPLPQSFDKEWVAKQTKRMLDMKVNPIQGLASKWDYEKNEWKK

As for `CN(C)CCCN1c2ccccc2Sc2ccc(Cl)cc21` [CPZ, Chlorpromazine], the IC50 in experiment [1] was 25.8 ± 3.75 µM; in experiment [2], roughly 2 µM.

The record behind these values is paper PMC5514931, “Repositioning chlorpromazine for treating chemoresistant glioma through the inhibition of cytochrome c oxidase bearing the COX4-1 regulatory subunit” (Oncotarget, 2017).
